What was measured:
PDE4B2 = target: T1, PDE4B2 (Homo sapiens, UniProt Q07343); test: Inhibition of PDE4B2 activity, modified [3H]cAMP SPA enzyme assay; type: biochemical; details: recombinant PDE4B2 (GB no. M97515) expressed in SF21 cells; 0.5 μM cAMP; 15 min at 37° C.; read-out: PDE4 Inhibition [measured as −logIC50 (mol/l)] (converted)
T1 construct: made in house; host or cells: SF21 insect cells (baculovirus prepared in SF9 cells; pCR-Bac vector)
Experimental: PDE4B2 (GB no. M97515) was a gift of Prof. M. Conti (Stanford University, USA). It was amplified from the original plasmid (pCMV5) via PCR with primers Rb9 (5′-[…]-3′) and Rb10 (5′-[…]-3′) and cloned into the pCR-Bac vector (Invitrogen, Groningen, NL).
The recombinant baculovirus was prepared by means of homologous recombination in SF9 insect cells. The expression plasmids were cotransfected with Bac-N-Blue (Invitrogen, Groningen, NL) or Baculo-Gold DNA (Pharmingen, Hamburg) using a standard protocol (Pharmingen, Hamburg). Wt virus-free recombinant virus supernatants were selected using plaque assay methods. After that, high-titre virus supernatants were prepared by amplifying 3 times. PDE4B2 was expressed in SF21 cells by infecting 2×10^6 cells/ml with an MOI (multiplicity of infection) between 1 and 10 in serum-free SF900 medium (Life Technologies, Paisley, UK). The cells were cultured at 28° C. for 48-72 hours, after which they were pelleted for 5-10 min at 1000 g and 4° C.
The SF21 insect cells were resuspended, at a concentration of approx. 10^7 cells/ml, in ice-cold (4° C.) homogenization buffer (20 mM Tris, pH 8.2, containing the following additions: 140 mM NaCl, 3.8 mM KCl, 1 mM EGTA, 1 mM MgCl2, 10 mM β-mercaptoethanol, 2 mM benzamidine, 0.4 mM Pefablock, 10 μM leupeptin, 10 μM pepstatin A, 5 μM trypsin inhibitor) and disrupted by ultrasonication. The homogenate was then centrifuged for 10 min at 1000×g and the supernatant was stored at −80° C. until sub-sequent use (see below). The protein content was determined by the Bradford method (BioRad, Munich) using BSA as the standard.
PDE4B2 activity was inhibited by the compounds according to the invention in a modified SPA (scintillation proximity assay) test, supplied by Amersham Biosciences (see procedural instructions “phosphodiesterase [3H]cAMP SPA enzyme assay, code TRKQ 7090”), carried out in 96-well microtitre plates (MTP's). The test volume is 100 μl and contains 20 mM Tris buffer (pH 7.4), 0.1 mg of BSA (bovine serum albumin)/ml, 5 mM Mg^2+, 0.5 μM cAMP (including about 50,000 cpm of [3H]cAMP), 1 μl of the respective substance dilution in DMSO and sufficient recombinant PDE (1000×g supernatant, see above) to ensure that 10-20% of the cAMP is converted under the said experimental conditions. […] After a preincubation of 5 min at 37° C., the reaction is started by adding the substrate (cAMP) and the assays are incubated for a further 15 min; after that, they are stopped by adding SPA beads (50 μl). In accordance with the manufacturer's instructions, the SPA beads had previously been resuspended in water, but were then diluted 1:3 (v/v) in water; the diluted solution also contains 3 mM IBMX to ensure a complete PDE activity stop. After the beads have been sedimented (>30 min), the MTP's are analyzed in commercially available luminescence detection devices. The corresponding IC50 values of the compounds for the inhibition of PDE4B2 activity are determined from the concentration-effect curves by means of non-linear regression.

T1 sequence (Q07343 1-564 isoform Q07343-2): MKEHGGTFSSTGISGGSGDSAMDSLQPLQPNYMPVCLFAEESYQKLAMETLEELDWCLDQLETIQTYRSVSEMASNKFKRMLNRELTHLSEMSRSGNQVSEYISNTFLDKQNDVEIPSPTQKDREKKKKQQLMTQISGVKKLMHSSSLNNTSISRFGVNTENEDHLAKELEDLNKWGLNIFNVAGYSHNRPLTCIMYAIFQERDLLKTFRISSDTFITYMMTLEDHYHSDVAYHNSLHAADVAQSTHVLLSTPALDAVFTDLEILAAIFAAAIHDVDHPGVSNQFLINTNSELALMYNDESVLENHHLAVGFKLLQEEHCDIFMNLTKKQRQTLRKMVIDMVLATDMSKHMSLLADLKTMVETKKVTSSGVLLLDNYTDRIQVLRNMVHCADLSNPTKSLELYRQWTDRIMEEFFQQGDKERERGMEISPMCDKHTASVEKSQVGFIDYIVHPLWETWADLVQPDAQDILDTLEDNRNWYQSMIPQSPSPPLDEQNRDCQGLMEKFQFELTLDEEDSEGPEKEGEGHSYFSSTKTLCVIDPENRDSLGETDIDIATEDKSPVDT

IC50 (PDE4B2) [nM] | melting point | SMILES
32.4 | 196 to 198 °C | COc1ccc(C2=NN(c3ccc(C(=O)O)cc3)C(=O)C(C)(C)C2)cc1OC [Compound 1, 4-(3-{3,4-dimethoxyphenyl}-5,5-dimethyl-6-oxo-5,6-dihydro-4H-pyridazin-1-yl)-benzoic acid]
11.2 | 249 °C (dec.) | COc1ccc(C2=NN(c3ccc(C(=O)N4CCN(CCN5CCOCC5)CC4)cc3)C(=O)C(C)(C)C2)cc1OC.Cl.Cl [Compound 3, 6-(3,4-Dimethoxy-phenyl)-4,4-dimethyl-2-(4-{1-[4-(2-morpholin-4-yl-ethyl)-piperazin-1-yl]-methanoyl}-phenyl)-4,5-dihydro-2H-pyridazin-3-one dihydrochloride]
1.74 | 165 to 166 °C | COc1ccc(C2=NN(c3ccc(C(=O)N4CCOCC4)cc3)C(=O)C(C)(C)C2)cc1OC [Compound 6, 6-(3,4-Dimethoxy-phenyl)-4,4-dimethyl-2-[4-(1-morpholin-4-yl-methanoyl)-phenyl]-4,5-dihydro-2H-pyridazin-3-one]
10.5 | 184 to 187 °C | COc1ccc(C2=NN(c3ccc(OCC(N)=O)cc3)C(=O)C(C)(C)C2)cc1OC [Compound 7, 2-{4-[3-(3,4-Dimethoxy-phenyl)-5,5-dimethyl-6-oxo-5,6-dihydro-4H-pyridazin-1-yl]-phenoxy}-acetamide]
– | 165 to 167 °C | COc1ccc(C2=NN(c3cccc(C(=O)O)c3)C(=O)C(C)(C)C2)cc1OC [Compound 11, 3-[3-(3,4-Dimethoxy-phenyl)-5,5-dimethyl-6-oxo-5,6-dihydro-4H-pyridazin-1-yl]-benzoic acid]
– | 108 to 109 °C | COc1ccc(C2=NN(c3cccc(C(=O)N4CCOCC4)c3)C(=O)C(C)(C)C2)cc1OC [Compound 13, 6-(3,4-Dimethoxy-phenyl)-4,4-dimethyl-2-[3-(1-morpholin-4-yl-methanoyl)-phenyl]-4,5-dihydro-2H-pyridazin-3-one]
– | 178 to 179 °C | COc1ccc(C2=NN(c3ccc(N4CCOCC4)cc3)C(=O)C(C)(C)C2)cc1OC [Compound 16, 6-(3,4-Dimethoxy-phenyl)-4,4-dimethyl-2-(4-morpholin-4-yl-phenyl)-4,5-dihydro-2H-pyridazin-3-one]

The remaining lines, values behind:

SMILES | IC50 (PDE4B2) [nM] | melting point
COc1ccc(C2=NN(c3ccc(OCc4ccccc4)cc3)C(=O)C(C)(C)C2)cc1OC [Compound 2, 2-(4-Benzyloxy-phenyl)-6-(3,4-dimethoxy-phenyl)-4,4-dimethyl-4,5-dihydro-2H-pyridazin-3-one] | 3.98 | 137 to 138 °C
COc1ccc(C2=NN(c3ccc(C(=O)N4CCN(c5ccncc5)CC4)cc3)C(=O)C(C)(C)C2)cc1OC.Cl.Cl [Compound 4, 6-(3,4-Dimethoxy-phenyl)-4,4-dimethyl-2-{4-[1-(4-pyridin-4-yl-piperazin-1-yl)-methanoyl]-phenyl}-4,5-dihydro-2H-pyridazin-3-one dihydrochloride] | 7.76 | 223 to 225 °C
COc1ccc(C2=NN(c3ccc(O)cc3)C(=O)C(C)(C)C2)cc1OC [Compound 5, 6-(3,4-Dimethoxy-phenyl)-2-(4-hydroxy-phenyl)-4,4-dimethyl-4,5-dihydro-2H-pyridazin-3-one] | 6.03 | 176 to 178 °C
COc1ccc(C2=NN(c3ccc(C(=O)N4CCN(CC(=O)N5CCCC5)CC4)cc3)C(=O)C(C)(C)C2)cc1OC.Cl [Compound 8, 6-(3,4-Dimethoxy-phenyl)-4,4-dimethyl-2-(4-{1-[4-(2-oxo-2-pyrrolidin-1-yl-ethyl)-piperazin-1-yl]-methanoyl}-phenyl)-4,5-dihydro-2H-pyridazin-3-one hydrochloride] | 7.59 | 144 to 146 °C
COc1ccc(C2=NN(c3ccc(OCC(=O)N4CCN(C)CC4)cc3)C(=O)C(C)(C)C2)cc1OC.Cl [Compound 9, 6-(3,4-Dimethoxy-phenyl)-4,4-dimethyl-2-{4-[2-(4-methyl-piperazin-1-yl)-2-oxo-ethoxy]-phenyl}-4,5-dihydro-2H-pyridazin-3-one hydrochloride] | – | 198 to 202 °C
COc1ccc(C2=NN(c3ccc(OCC(=O)N4CCOCC4)cc3)C(=O)C(C)(C)C2)cc1OC [Compound 10, 6-(3,4-Dimethoxy-phenyl)-4,4-dimethyl-2-[4-(2-morpholin-4-yl-2-oxo-ethoxy)-phenyl]-4,5-dihydro-2Hpyridazin-3-one] | 15.5 | 74 to 79 °C
COc1ccc(C2=NN(c3ccc(CC(=O)N4CCOCC4)cc3)C(=O)C(C)(C)C2)cc1OC [Compound 14, 6-(3,4-Dimethoxy-phenyl)-4,4-dimethyl-2-[4-(2-morpholin-4-yl-2-oxo-ethyl)-phenyl]-4,5-dihydro-2H-pyridazin-3-one] | – | 165 to 167 °C
COc1ccc(C2=NN(c3ccc(Br)cc3)C(=O)C(C)(C)C2)cc1OC [Compound 15, 2-(4-Bromo-phenyl)-6-(3,4-dimethoxy-phenyl)-4,4-dimethyl-4,5-dihydro-2H-pyridazin-3-one] | – | 123 to 124 °C

Source: patent US20080227790A1, “Pyridazinone Derivatives and their Use as Pde4 Inhibitors” (Altana Pharma AG, priority 2004, published 2008)
